{
  "source": "patent US20120276070A1",
  "about": "“Induced Pluripotent Stem Cells and Related Methods” (VITRO DIAGNOSITICS, INC., priority 2009, published 2012)",
  "key": {"[1]": {"tested_on": "POU5F1 (Oct3/4)", "test": "POU5F1 (Oct3/4) expression after adding small molecules to the adult stem cell culture medium", "format": "cell-based"}, "[2]": {"tested_on": "native human MSC", "test": "Puromycin dose-response / selection: killing of native, non-transfected human MSC", "format": "cell-based", "details": "10 μg/ml puromycin in medium", "protocol": "Human mesenchymal stem cells (Vitro Diagnostics, Inc., catalog number SC00A1) were cultured at 7500/cm^2 in T25 flasks (Greiner Bio-One catalog number 690-190) following coating at 2 μg/cm^2 with poly-L-lysine (Sigma Catalog number P1399) using low serum complete MSC cell culture medium (Vitro Diagnostics, Inc., catalog number SC00B1). Cultures were maintained here and throughout this study in a 5% O2, 5% CO2, balance N2 gas environment in a humidified chamber maintained at 37° C. Following two days of continuous culture and at about 40% confluence, the cultures were exposed to 1/15 dilution of the POU5-F1 pseudovirus stock in low serum medium containing 5 μg/ml polybrene (Sigma catalog number H9268). Following 10 hours exposure to the pseudovirus particles, the cultures were washed twice with PBS and cultured in low serum medium (Vitro SC00B1). Selection of stable transfectants began 16 hours later using 3 to 10 μg/ml puromycin (Sigma catalog number P7255) which was a sufficient concentration to kill native, non-transfected human MSC. Single colony clones were established by limited dilution cloning in 96 well plates (Greiner Bio-One, catalog number 655-160) using low serum MSC medium (Vitro Diagnostics, Inc., catalog number SC00B1) containing 10 μg/ml puromycin. […]"}, "[3]": {"details": "added to the medium at 1 to 2 mM"}},
  "note": "No end group written: not given here.",
  "data": [
    {"compound": "CCCC(=O)[O-].[Na+]", "note": "[sodium butyrate]", "values": [
      {"measurement": "POU5F1 (Oct3/4) expression", "setting": "[1]; [3]", "value": "increased POU5F1 (Oct3/4) expression"}
    ]},
    {"compound": "C[C@]12CCC(=O)C=C1CC[C@@H]1[C@@H]2[C@@H](O)C[C@@]2(C)[C@H]1CC[C@]2(O)C(=O)CO", "note": "[Hydrocortisone, hydrocortisone]", "values": [
      {"measurement": "POU5F1 (Oct3/4) expression", "setting": "[1]; added to the medium, preferably at 80 to 110 nM", "value": "increased POU5F1 (Oct3/4) expression"}
    ]},
    {"compound": "COc1ccc(C[C@H](N)C(=O)N[C@H]2[C@@H](O)[C@H](n3cnc4c(N(C)C)ncnc43)O[C@@H]2CO)cc1", "note": "[puromycin]", "values": [
      {"measurement": "effect on wild type MSCs", "setting": "[2]", "value": "lethal"}
    ]},
    {"compound": "O=C1O[C@H]([C@@H](O)CO)C(O)=C1O", "note": "[Vitamin C, ascorbic acid]", "values": [
      {"measurement": "POU5F1 (Oct3/4) expression", "setting": "[1]; added to the medium at 60 μM", "value": "increased POU5F1 (Oct3/4) expression"}
    ]},
    {"compound": "CCCC(CCC)C(=O)O", "note": "[valproic acid]", "values": [
      {"measurement": "POU5F1 (Oct3/4) expression", "setting": "[1]; [3]", "value": "increased POU5F1 (Oct3/4) expression"}
    ]},
    {"compound": "Nc1ncn([C@@H]2O[C@H](CO)[C@@H](O)[C@H]2O)c(=O)n1", "note": "[5-azacytidine]", "values": [
      {"measurement": "POU5F1 (Oct3/4) expression", "setting": "[1]; added to the medium at 0.5 mM, transient periods </=48 hours", "value": "increased POU5F1 (Oct3/4) expression"}
    ]},
    {"compound": "gonadotropin releasing hormone (QHWSYGLRPG; ends and bridges not checked; UniProt P01148 24-33, looked up) [GnRH]", "values": [
      {"measurement": "POU5F1 (Oct3/4) expression", "setting": "[1]; added to the medium at 75 pg/ml", "value": "increased POU5F1 (Oct3/4) expression"}
    ]}
  ]
}
